This note sets out measurements from patent publication US9150567B2, “Substituted tetrazol-1-yl-phenoxymethyl-thiazol-2-yl-piperidinyl-pyrimidine salts” (CYMABAY THERAPEUTICS, INC., priority 2009, dated 2015).

Broadly, the half-life is the time in which the quantity being followed falls by half. A low value points to rapid decline. As a reminder, the Cmax is the highest concentration seen after dosing. By Tmax is commonly meant the time from dosing to the highest level.

Structures are written as SMILES. Where a name gives a salt, the structure may show the parent alone. Read-outs that look alike come from different tables or passages of the source.

The nature of series [1]: Moisture sorption of HCl Form I. Format: physicochemical. The text has this: A steady ˜0.9 wt % gain was observed between ˜5% and ˜95% RH. A complete desorption occurred upon decreasing relative humidity to ˜5% (˜0.9 wt % loss between ˜95% and ˜5% RH).
A short description of series [2]: Systemic exposure and pharmacokinetics after single oral gavage dose of 200 mg/kg in fasted male SD rats. The series is classed as in vivo, Sprague Dawley (SD) rats. The settings on record: for Fold difference in plasma concentration compared to micronized free-base form: 30 hours post-dose; for Increase of systemic drug exposure in AUC0-t compared with micro MBX-2982 (free base): equivalent amounts. As to the method: Two studies were conducted in order to compare the systemic exposure and pharmacokinetics (PK) of microcrystalline MBX-2982 and salt forms of MBX-2982 in fasted male Sprague Dawley (SD) rats following single oral gavage (PO) doses of 200 mg/kg. Four salt foms of MBX-2982 were investigate in the studies. The tested salts were HCl Form I, HCl salt Form II, mesylate salt and the tosylate salt.
Preparation of samples was performed by solvent precipitation of plasma proteins in a 1 mL/well 96-well plate. Standards were prepared by spiking 10 μL of blank plasma with 10 μL of standard solution (acetonitrile containing MBX-2982 at 0.01, 0.02, 0.05, 0.1, 0.2, 0.5, 1, 2, 5, 10, 20, 50 and 100 μg/mL) and 300 μL of 0.1% formic acid in acetonitrile containing 0.2 μg/mL internal standard. Plasma samples were prepared by adding 10 μL of plasma sample, 10 μL of acetonitrile, and 300 μL of 0.2 μg/mL internal standard in 0.1% formic acid in acetonitrile. After addition of the organic solvents, all samples were vortexed briefly and centrifuged at 3600 rpm for 10 minutes. Some of the samples were diluted 1.3 to 2-fold with blank plasma. An aliquot of the supernatant (25 μL) was transfer to a 1 mL/well 96-well plate and mixed with 200 μL water/ACN (50/50, v/v) and injected into the HPLC.
The suspensions for microcrystalline MBX-2982 (free base) and salt forms of MBX-2982 were prepared in 1% carboxymethylcellulose and 2% tween 80 in water (w/w/v).
Five groups of animals were given microcrystalline and salt forms suspension doses of MBX-2982 orally at 200 mg/kg, respectively. Food was withheld the night before dose and returned nine hours after dosing. Blood samples were collected at 0.25, 0.5, 1, 2, 4, 6, 9, 24, 30 and 48 h post dose. MBX-2982 plasma concentration from these samples was analyzed by a non-validated high performance liquid chromatography in conjunction with mass spectrometry (LC-MS/MS) method.
Plasma concentration-time data for individual animals were analyzed using WinNonlin software (Professional, version 5.0.1; Pharsight Corp.). A non-compartmental model (model 200) was used. Peak area ratios of MBX-2982 to internal standard and concentration were fitted to a quadratic equation (Calibration Curve) with 1/x weighting using a quadratic regression program in Analyst version 1.4.2 (Applied Biosystem Inc). The equations were then used to interpolate the concentrations of MBX-2982 in samples from peak area to internal standard ratio.
The following pharmacokinetic parameters were calculated: • 1) Cmax: Maximum (peak) plasma concentration • 2) Tmax: Time at which Cmax occurred • 3) t1/2: Terminal phase half-life • 4) AUC0-t: Area under the concentration-time curve from time 0 to last measurable concentration • 5) AUC0-inf: Area under the concentration-time curve from time 0 extrapolated to infinity

Series [3] is described as follows: Overnight / elevated RH stress of the crystalline salts. The series is classed as physicochemical. The settings on record: overnight / elevated relative humidity stress.
[4] abbreviates: fasted male SD rats, single PO dose 200 mg/kg, mean ± SD.

Take `CCc1cnc(N2CCC(c3nc(COc4ccc(-n5cnnn5)cc4)cs3)CC2)nc1.Cl` [HCl Salt Form I, 5-ethyl-2-{4-[4-(4-tetrazol-1-yl-phenoxymethyl)-thiazol-2-yl]-piperidin-1-yl}-pyrimidine hydrochloride]: the “Weight gain on sorption” value in series [1] (between ~5% and ~95% RH) is given as roughly 0.9 wt %. In series [1] (between ~95% and ~5% RH), the “Weight loss on desorption” value is listed as roughly 0.9 wt %. The “Weight loss upon equilibration” value in series [1] (equilibration at ~5% RH) is roughly 0.3 wt %. The “Mean plasma concentration of MBX-2982” value in series [2] (0.5 h post dose, fasted male SD rats, PO 200 mg/kg, mean ± SD, hydrochloride) was 9790 ± 3730 ng/mL; in series [2] (1 h post dose, fasted male SD rats, PO 200 mg/kg, mean ± SD, hydrochloride), 15500 ± 3150 ng/mL; in series [2] (2 h post dose, fasted male SD rats, PO 200 mg/kg, mean ± SD, hydrochloride), 24200 ± 3350 ng/mL; in series [2] (4 h post dose, fasted male SD rats, PO 200 mg/kg, mean ± SD, hydrochloride), 31400 ± 7100 ng/mL; in series [2] (6 h post dose, fasted male SD rats, PO 200 mg/kg, mean ± SD, hydrochloride), 28100 ± 8460 ng/mL; in series [2] (9 h post dose, fasted male SD rats, PO 200 mg/kg, mean ± SD, hydrochloride), 23800 ± 6990 ng/mL. Besides, the “Mean plasma concentration of MBX-2982” value in series [2] (24 h post dose, fasted male SD rats, PO 200 mg/kg, mean ± SD, hydrochloride) is 7430 ± 9630 ng/mL; in series [2] (24 h post dose, fasted male SD rats, PO 200 mg/kg, mean ± SD, listed as HCl form I, hydrochloride), 7300 ng/mL; in series [2] (30 h post dose, fasted male SD rats, PO 200 mg/kg, mean ± SD, hydrochloride), 7520 ± 12630 ng/mL; in series [2] (48 h post dose, fasted male SD rats, PO 200 mg/kg, mean ± SD, hydrochloride), 1080 ± 2310 ng/mL. Also, the “Fold difference in plasma concentration compared to micronized free-base form” value in series [2] (male SD rats, PO 200 mg/kg, listed as HCl form I, hydrochloride) came to 94 fold. Further, the “Increase of systemic drug exposure in AUC0-t compared with micro MBX-2982 (free base)” value in series [2] (male SD rats, PO 200 mg/kg, hydrochloride) is reported as 2.4 fold. The concentration at 30 h in series [2] (male, Sprague-Dawley, rat, plasma, po, 30 h post dose, male SD rats, PO 200 mg/kg, read-out: Plasma level at 30 hours post-dose) was 7.52 ng/mL. Besides, the half-life in series [2] (male, Sprague-Dawley, rat, plasma, po, fasted male SD rats, single PO dose 200 mg/kg, mean ± SD) was 4.01 ± 1.68 h. Further, the AUC(0-t) in series [2] (male, Sprague-Dawley, rat, plasma, po, fasted male SD rats, single PO dose 200 mg/kg, mean ± SD, read-out: AUC0-24) stood at 454 ± 98.4 µg·h/mL; in series [2] (male, Sprague-Dawley, rat, plasma, po, fasted male SD rats, single PO dose 200 mg/kg, mean ± SD, read-out: AUC0-t) it was 571 ± 249 µg·h/mL. Besides, the AUC0-inf in series [2] (male, Sprague-Dawley, rat, plasma, po, fasted male SD rats, single PO dose 200 mg/kg, mean ± SD, read-out: AUC0-inf) was 536 ± 29.9 µg·h/mL. Moreover, the Cmax in series [2] (male, Sprague-Dawley, rat, plasma, po, fasted male SD rats, single PO dose 200 mg/kg, mean ± SD, read-out: Cmax) came to 31200 ± 7410 ng/mL. Further, the Tmax in series [2] (male, Sprague-Dawley, rat, plasma, po, fasted male SD rats, single PO dose 200 mg/kg, mean ± SD, read-out: Tmax) was found to be 7.25 ± 9.25 h.
As for `CCc1cnc(N2CCC(c3nc(COc4ccc(-n5cnnn5)cc4)cs3)CC2)nc1` [Tosylate Salt, 5-ethyl-2-{4-[4-(4-tetrazol-1-yl-phenoxymethyl)-thiazol-2-yl]-piperidin-1-yl}-pyrimidine], the “Mean plasma concentration of MBX-2982” value in series [2] (0.5 h post dose, fasted male SD rats, PO 200 mg/kg, mean ± SD) was determined as 10100 ± 2450 ng/mL; in series [2] (1 h post dose, fasted male SD rats, PO 200 mg/kg, mean ± SD) it was 13000 ± 3330 ng/mL; in series [2] (2 h post dose, fasted male SD rats, PO 200 mg/kg, mean ± SD) it was 19700 ± 2550 ng/mL; in series [2] (4 h post dose, fasted male SD rats, PO 200 mg/kg, mean ± SD), 23600 ± 6900 ng/mL; in series [2] (6 h post dose, fasted male SD rats, PO 200 mg/kg, mean ± SD), 20300 ± 11200 ng/mL; in series [2] (9 h post dose, fasted male SD rats, PO 200 mg/kg, mean ± SD) it was 18600 ± 10550 ng/mL. Also, the “Mean plasma concentration of MBX-2982” value was determined as 4200 ± 5510 ng/mL in series [2] (24 h post dose, fasted male SD rats, PO 200 mg/kg, mean ± SD); 4200 ng/mL in series [2] (24 h post dose, fasted male SD rats, PO 200 mg/kg, mean ± SD, listed as tosylate); 3180 ± 5880 ng/mL in series [2] (30 h post dose, fasted male SD rats, PO 200 mg/kg, mean ± SD); 3180 ng/mL in series [2] (30 h post dose, fasted male SD rats, PO 200 mg/kg, mean ± SD, listed as tosylate); 20 ± 10 ng/mL in series [2] (48 h post dose, fasted male SD rats, PO 200 mg/kg, mean ± SD). Also, the “Fold difference in plasma concentration compared to micronized free-base form” value in series [2] (male SD rats, PO 200 mg/kg) is recorded as 40 fold. The compound further gave an AUC0-24 in series [2] (setting [4]) of 342 ± 117 µg·h/mL. In series [2] (setting [4]), this compound registered an AUC0-inf of 393 ± 98.1 µg·h/mL. This compound also gave an AUC(0-t) in series [2] (setting [4]) of 392 ± 98.2 µg·h/mL. In series [2] (setting [4]), this compound returned a Cmax of 26100 ± 7980 ng/mL. In series [2] (setting [4]), the Tmax turned out to be 4.00 ± 1.63 h. The t1/2 in series [2] (setting [4]) came to 3.20 ± 0.88 h. Besides, the “Increase of systemic drug exposure in AUC0-t compared with micro MBX-2982 (free base)” value in series [2] (male SD rats, PO 200 mg/kg) turned out to be 1.7 fold. The “Appearance of the material after RH stress” value in series [3] was “remained a free flowing powder”.
